Like-named read-outs stand apart in the source and are kept apart here. Residues, ends and D or L forms follow the SMILES beside them.
What was measured:
[1] = Biodistribution in tumor-bearing nude mice; format: in vivo; conditions: female, BALB/c nude, mouse, iv, 1480 kBq/200 uL, total radioactivity, ~1480 kBq/200 μL tail vein, mean ± SD, n = 3; for tissue uptake at 0.5 h: 0.5 h after injection; for tissue uptake at 1 h: 1 h after injection; for tissue uptake at 2 h: 2 h after injection; for tissue uptake at 4 h: 4 h after injection; for tissue uptake at 8 h: 8 h after injection
Procedure: (§1) A mouse model bearing a human breast cancer cell line, MDA-MB-231, was established. MDA-MB-231 cells were cultured using the conventional method. Cells were collected at the logarithmic growth phase and washed once with PBS. The cells were then diluted to prepare suspensions at a concentration of approximately 1 × 10^6 cells/mL, which were temporarily stored in an ice box. Female 4-week-old BALB/c nude mice (16-20 g) were selected. MDA-MB-231 cells were inoculated subcutaneously using a disposable insulin syringe inserted into the right lateral thighs of the nude mice. The number of inoculated cells in each nude mouse was approximately 0.1 mL. The nude mice were raised under specific pathogen-free (SPF) conditions.
Biodistribution experiments were conducted when the tumor diameter was 0.8-1.0 cm. Purified [^125I]I-pHLIP (Var7) was diluted with PBS, and a total of 15 tumor-bearing nude mice with no significant differences in tumor size were randomly divided into five cohorts. Nude mice in each cohort were injected with [^125I]I-pHLIP (Var7) at approximately 1480 kBq/200 μL through the tail vein. At 0.5, 1, 2, 4, and 8 h after injection, blood was collected from the orbital sinus. The mice were sacrificed, and tissues and organs, including the heart, liver, spleen, lung, kidney, pancreas, stomach, small intestine, bladder, thyroid, brain, bone, muscle, and tumors, were collected and weighed. The radioactive count was measured, and the results were converted to %ID/g.

[2] = tested on: MDA-MB-231 tumor-bearing mice; assay: Small-animal SPECT/CT imaging; format: in vivo, BALB/c nude mice; conditions: 1 and 2 h after injection; 3.7 MBq/200 μL tail vein; thyroid blocked with 0.1% KI
Procedure: as §1
Imaging was started when the diameter of the tumor grew to 0.8-1.0 cm. Three days before imaging, 3 nude mice began to drink 0.1% KI solution to block the thyroid gland until the end of the experiment. • The machine was calibrated daily • Anesthesia Induction. […] Imaging settings for the SPECT/CT and reconstruction are as follows: the time per frame was 10 min, voxel size was 0.8 mm, number of subsets was 32, and number of iterations was 15 • The injection time, injection dose, and residual dose were recorded according to the tables in the experiment

[3] = In vitro stability in PBS buffer (radiochemical purity); format: physicochemical; conditions: 24 h, paper chromatography
Procedure: The purity of [^125I]I-pHLIP (Var7) was determined by paper chromatography. Normal saline was used as the developing agent, and Xinhua Grade 1 chromatography paper was used as the stationary phase. An appropriate amount of [^125I]I-pHLIP (Var7) eluent was aspirated by a capillary pipette and spotted at the origin of the chromatographic filter paper. After drying, the paper was placed vertically into a test tube containing the developing agent; the unfolded chromatographic filter paper was removed, air dried, and cut at intervals of 1 cm. The radioactivity count was measured segment by segment to calculate the radiochemical purity.
The purified [^125I]I-pHLIP (Var7) was placed at 4°C, at room temperature (25°C) in PBS buffer, and at 37°C in mouse serum. The radiochemical purity at different time points was measured, and the stability was determined. • Two hundred microliters of purified [^125I]I-pHLIP (Var7) solution was placed at 4°C and at room temperature in PBS buffer. Radiochemical purity was determined immediately after purification and at 1, 2, 4, 8, and 24 h after purification • Fifty microliters of purified [^125I]I-pHLIP (Var7) solution was mixed with 100 μL of mouse serum and placed in a 37°C water bath. Radiochemical purity was determined immediately after mixing and at 1, 2, 4, 8, and 24 h after mixing

[4] = bladder, read-out: distribution in bladder
[5] = blood, read-out: distribution in blood
[6] = bone, read-out: distribution in bone
[7] = brain, read-out: distribution in brain
[8] = heart, read-out: distribution in heart
[9] = kidney, read-out: distribution in kidney
[10] = liver, read-out: distribution in liver
[11] = lung, read-out: distribution in lung
[12] = muscle, read-out: distribution in muscle
[13] = pancreas, read-out: distribution in pancreas
[14] = small intestine, read-out: distribution in small intestine
[15] = spleen, read-out: distribution in spleen
[16] = stomach, read-out: distribution in stomach
[17] = thyroid, read-out: distribution in thyroid
[18] = tumor (MDA-MB-231), MDA-MB-231 tumor, read-out: distribution in tumor

Q: With `CC(C)C[C@H](NC(=O)[C@H](CCC(=O)O)NC(=O)[C@H](CC(C)C)NC(=O)[C@H](CC(C)C)NC(=O)[C@H](CC(C)C)NC(=O)[C@@H](NC(=O)[C@H](CCC(=O)O)NC(=O)[C@@H](NC(=O)[C@@H]1CCCN1C(=O)[C@H](Cc1ccccc1)NC(=O)[C@H](CC(C)C)NC(=O)[C@H](Cc1c[nH]c2ccccc12)NC(=O)[C@H](CCC(=O)O)NC(=O)[C@H](CC(C)C)NC(=O)[C@H](Cc1ccc(O)c(I)c1)NC(=O)[C@H](CCCNC(=N)N)NC(=O)[C@H](C)NC(=O)[C@H](Cc1c[nH]c2ccccc12)NC(=O)[C@@H]1CCCN1C(=O)[C@H](CC(N)=O)NC(=O)[C@H](CCC(N)=O)NC(=O)[C@H](CCC(=O)O)NC(=O)[C@H](CCC(=O)O)NC(=O)[C@H](C)N)[C@@H](C)O)[C@@H](C)O)C(N)=O` [[^125I]I-pHLIP (Var7)] (HELM PEPTIDE1{A.E.E.Q.N.P.W.A.R.[O=C([C@H](Cc1ccc(O)c(I)c1)N[*:1])[*:2]].L.E.W.L.F.P.T.E.T.L.L.L.E.L.[am]}$$$$V2.0) as the compound, how does the tissue uptake at 0.5 h [1, 4] read?
A: 3.8 ± 1.1 %ID/g

Q: What about the tissue uptake at 1 h [1, 4] of the same compound?
A: 4.3 ± 1.1 %ID/g

Q: And the tissue uptake at 2 h [1, 4]?
A: 2.1 ± 0.9 %ID/g

Q: And the tissue uptake at 4 h [1, 4]?
A: 1 ± 0.6 %ID/g

Q: And the tissue uptake at 8 h [1, 4]?
A: 0.5 ± 0.2 %ID/g

Q: What about the tissue uptake at 0.5 h [1, 5] of the same compound?
A: 12 ± 1.5 %ID/g

Q: What about the tissue uptake at 1 h [1, 5] of the same compound?
A: 6.5 ± 1.5 %ID/g

Q: And the tissue uptake at 2 h [1, 5]?
A: 2.8 ± 0.6 %ID/g

Q: And the tissue uptake at 4 h [1, 5]?
A: 1.2 ± 0.5 %ID/g

Q: What about the tissue uptake at 8 h [1, 5] of the same compound?
A: 0.5 ± 0.1 %ID/g

Q: And the tissue uptake at 0.5 h [1, 6]?
A: 2.9 ± 0.3 %ID/g

Q: And the tissue uptake at 1 h [1, 6]?
A: 2.8 ± 0.1 %ID/g

Q: And the tissue uptake at 2 h [1, 6]?
A: 1.5 ± 0.5 %ID/g

Q: And the tissue uptake at 4 h [1, 6]?
A: 0.7 ± 0.2 %ID/g

Q: And the tissue uptake at 8 h [1, 6]?
A: 0.2 ± 0.1 %ID/g

Q: What about the tissue uptake at 0.5 h [1, 7] of the same compound?
A: 0.6 ± 0.1 %ID/g

Q: And the tissue uptake at 1 h [1, 7]?
A: 0.5 ± 0.1 %ID/g

Q: And the tissue uptake at 2 h [1, 7]?
A: 0.3 ± 0.1 %ID/g

Q: And the tissue uptake at 4 h [1, 7]?
A: 0.1 ± 0.1 %ID/g

Q: And the tissue uptake at 8 h [1, 7]?
A: 0.1 ± 0.1 %ID/g

Q: What about the tissue uptake at 0.5 h [1, 8] of the same compound?
A: 4.1 ± 0.5 %ID/g

Q: And the tissue uptake at 1 h [1, 8]?
A: 3.9 ± 0.7 %ID/g

Q: What about the tissue uptake at 2 h [1, 8] of the same compound?
A: 2 ± 0.4 %ID/g

Q: What about the tissue uptake at 4 h [1, 8] of the same compound?
A: 1.1 ± 1.1 %ID/g

Q: What about the tissue uptake at 8 h [1, 8] of the same compound?
A: 0.5 ± 0.3 %ID/g

Q: And the tissue uptake at 0.5 h [1, 9]?
A: 4.2 ± 0.6 %ID/g

Q: And the tissue uptake at 1 h [1, 9]?
A: 5.1 ± 1.1 %ID/g

Q: What about the tissue uptake at 2 h [1, 9] of the same compound?
A: 2.3 ± 0.8 %ID/g

Q: What about the tissue uptake at 4 h [1, 9] of the same compound?
A: 1.2 ± 0.4 %ID/g

Q: And the tissue uptake at 8 h [1, 9]?
A: 0.5 ± 0.2 %ID/g

Q: And the tissue uptake at 0.5 h [1, 10]?
A: 13.9 ± 2.7 %ID/g

Q: And the tissue uptake at 1 h [1, 10]?
A: 8 ± 1.9 %ID/g

Q: And the tissue uptake at 2 h [1, 10]?
A: 4 ± 0.6 %ID/g

Q: What about the tissue uptake at 4 h [1, 10] of the same compound?
A: 1.8 ± 0.2 %ID/g

Q: And the tissue uptake at 8 h [1, 10]?
A: 0.7 ± 0.2 %ID/g

Q: What about the tissue uptake at 0.5 h [1, 11] of the same compound?
A: 3.4 ± 1.2 %ID/g

Q: What about the tissue uptake at 1 h [1, 11] of the same compound?
A: 2.5 ± 1 %ID/g

Q: And the tissue uptake at 2 h [1, 11]?
A: 1.2 ± 0.5 %ID/g

Q: What about the tissue uptake at 4 h [1, 11] of the same compound?
A: 0.5 ± 0.3 %ID/g

Q: What about the tissue uptake at 8 h [1, 11] of the same compound?
A: 0.2 ± 0.1 %ID/g

Q: What about the tissue uptake at 0.5 h [1, 12] of the same compound?
A: 1.7 ± 0.6 %ID/g

Q: What about the tissue uptake at 1 h [1, 12] of the same compound?
A: 1.4 ± 0.8 %ID/g

Q: And the tissue uptake at 2 h [1, 12]?
A: 0.6 ± 0.2 %ID/g

Q: What about the tissue uptake at 4 h [1, 12] of the same compound?
A: 0.2 ± 0.1 %ID/g

Q: What about the tissue uptake at 8 h [1, 12] of the same compound?
A: 0.1 ± 0.1 %ID/g

Q: What about the tissue uptake at 0.5 h [1, 13] of the same compound?
A: 3.3 ± 0.8 %ID/g

Q: And the tissue uptake at 1 h [1, 13]?
A: 4.1 ± 1.2 %ID/g

Q: And the tissue uptake at 2 h [1, 13]?
A: 2.1 ± 0.6 %ID/g

Q: What about the tissue uptake at 4 h [1, 13] of the same compound?
A: 0.9 ± 0.3 %ID/g

Q: What about the tissue uptake at 8 h [1, 13] of the same compound?
A: 0.3 ± 0.1 %ID/g

Q: And the tissue uptake at 0.5 h [1, 14]?
A: 3.3 ± 1.5 %ID/g

Q: What about the tissue uptake at 1 h [1, 14] of the same compound?
A: 4.2 ± 0.6 %ID/g

Q: What about the tissue uptake at 2 h [1, 14] of the same compound?
A: 2.8 ± 1 %ID/g

Q: And the tissue uptake at 4 h [1, 14]?
A: 1.3 ± 0.5 %ID/g

Q: What about the tissue uptake at 8 h [1, 14] of the same compound?
A: 0.4 ± 0.1 %ID/g

Q: What about the tissue uptake at 0.5 h [1, 15] of the same compound?
A: 3 ± 1.1 %ID/g

Q: And the tissue uptake at 1 h [1, 15]?
A: 3 ± 0.6 %ID/g

Q: And the tissue uptake at 2 h [1, 15]?
A: 1.4 ± 0.4 %ID/g

Q: And the tissue uptake at 4 h [1, 15]?
A: 0.7 ± 0.2 %ID/g

Q: What about the tissue uptake at 8 h [1, 15] of the same compound?
A: 0.3 ± 0.1 %ID/g

Q: What about the tissue uptake at 0.5 h [1, 16] of the same compound?
A: 4.7 ± 1.2 %ID/g

Q: What about the tissue uptake at 1 h [1, 16] of the same compound?
A: 5.1 ± 1.2 %ID/g

Q: And the tissue uptake at 2 h [1, 16]?
A: 4.3 ± 1 %ID/g

Q: What about the tissue uptake at 4 h [1, 16] of the same compound?
A: 2.2 ± 0.8 %ID/g

Q: And the tissue uptake at 8 h [1, 16]?
A: 0.7 ± 0.2 %ID/g

Q: What about the tissue uptake at 0.5 h [1, 17] of the same compound?
A: 4.3 ± 1.7 %ID/g

Q: What about the tissue uptake at 1 h [1, 17] of the same compound?
A: 5.6 ± 1.4 %ID/g

Q: What about the tissue uptake at 2 h [1, 17] of the same compound?
A: 3.4 ± 1 %ID/g

Q: And the tissue uptake at 4 h [1, 17]?
A: 1.6 ± 0.8 %ID/g

Q: And the tissue uptake at 8 h [1, 17]?
A: 0.8 ± 0.4 %ID/g

Q: And the tissue uptake at 0.5 h [1, 18]?
A: 3.6 ± 0.5 %ID/g

Q: What about the tissue uptake at 1 h [1, 18] of the same compound?
A: 6.9 ± 0.4 %ID/g

Q: And the tissue uptake at 2 h [1, 18]?
A: 3.6 ± 0.7 %ID/g

Q: What about the tissue uptake at 4 h [1, 18] of the same compound?
A: 2 ± 0.6 %ID/g

Q: And the tissue uptake at 8 h [1, 18]?
A: 1 ± 0.4 %ID/g

Q: And the “tumor visibility on SPECT/CT” value [2]?
A: clearly visible tumors

Q: And the “stability (radiochemical purity)” value ([3]; 4°C)?
A: higher than 98%

Q: What about the “stability (radiochemical purity)” value ([3]; room temperature (25°C)) of the same compound?
A: higher than 98%
